Where two headings read alike, the source gives them in different places.
Legend:
Format in all cases: cell-based
melanoma cells (A2058) = test: In vitro potency (CellTiter-Glo, 96 h) on A2058; conditions: Homo sapiens, A2058, 96 h, read-out: A2058 IC50
Description: (§1) In vitro potency was assessed on multiple cancer cell lines. All cell lines were authenticated by STR profiling at IDEXX Bioresearch and cultured for no more than 2 months after resuscitation. Cells cultured in log-phase growth were seeded for 24 hours in 96-well plates containing […] RPMI 1640 supplemented with 20% FBS. Serial dilutions of antibody-drug conjugates in cell culture media were prepared at 4x working concentrations, and 50 μL of each dilution was added to the 96-well plates. Following addition of test articles, cells were incubated with test articles for 4 days at […]. After 96 hours, growth inhibition was assessed by CellTiterGlo® (Promega, Madison, WI) and luminescence was measured on a plate reader.
(§2) Cell viability was determined by CellTiter-Glo staining after 96h exposure to ADC. ND=Not Determined. In the following tables, “Ex_” refers to a drug linker number. For example, “Ag4-Ex_4a” refers to a conjugate of an Ag4 antibody with drug linker 4a.

[1] = system: Hodgkin's lymphoma cells (L540cy); test: In vitro potency (CellTiter-Glo, 96 h) on L540cy; conditions: L540cy, 96 h, read-out: L540cy IC50
Description: as §1, §2

[2] = In vitro potency (CellTiter-Glo, 96 h) on Ls174T; conditions: Homo sapiens, LS174T, read-out: Ls174T IC50
Description: as §1, §2

[3] = system: anaplastic large cell lymphoma cells (DEL); test: In vitro potency (CellTiter-Glo, 96 h) on DEL; conditions: 96 h, read-out: DEL IC50
Description: as §1, §2

[4] = system: B-lymphocyte cancer cells (SU-DHL4); test: In vitro potency (CellTiter-Glo, 96 h) on SU-DHL4; conditions: Homo sapiens, SU-DHL-4, 96 h, read-out: SU-DHL-4 IC50
Description: as §1, §2

[5] = system: non-small-cell lung cancer cells (Calu1); test: In vitro potency (CellTiter-Glo, 96 h) on Calu1; conditions: Homo sapiens, Calu-1, 96 h, read-out: Calu1 IC50
Description: as §1, §2

[6] = system: breast cancer cells (MDA-MB-231); test: In vitro potency (CellTiter-Glo, 96 h) on MDA-MB-231; conditions: Homo sapiens, MDA-MB-231, 96 h, read-out: MDAMB 231 IC50
Description: as §1, §2

[7] = system: renal carcinoma cells (786-O); test: In vitro potency (CellTiter-Glo, 96 h) on 786-O; conditions: Homo sapiens, 786-0, 96 h, read-out: 786-O IC50
Description: as §1, §2

[8] = system: acute myeloid leukemia cells (MOLM-13); test: In vitro potency (CellTiter-Glo, 96 h) on MOLM-13; conditions: Homo sapiens, MOLM-13, 96 h, read-out: MOLM-13 IC50
Description: as §1, §2

[9] = system: anaplastic large cell lymphoma cells (Karpas299); test: In vitro potency (CellTiter-Glo, 96 h) on Karpas299; conditions: Homo sapiens, KARPAS-299, 96 h, read-out: Karpas299 IC50
Description: as §1, §2

[10] = system: anaplastic large cell lymphoma cells (DELBVR); test: In vitro potency (CellTiter-Glo, 96 h) on DELBVR; conditions: 96 h, read-out: DELBVR IC50
Description: as §1, §2

[11] = system: pancreatic cancer cells (BxPC3); test: In vitro potency (CellTiter-Glo, 96 h) on BxPC3; conditions: Homo sapiens, BXPC-3, 96 h, read-out: BxPC3 IC50
Description: as §1, §2

[12] = CPT free drugs, CellTiter-Glo after 96 h exposure

SMILES | IC50 [1] | IC50 ([2]; 96 h) | IC50 [3] | IC50 [4] | IC50 [6] | IC50 [7] | IC50 [8] | IC50 [9] | IC50 [10] | IC50 (melanoma cells (A2058); [12]) | IC50 [1, 12] | IC50 [2, 12] | IC50 [3, 12] | IC50 [4, 12] | IC50 [6, 12] | IC50 [8, 12] | IC50 [9, 12] | IC50 [10, 12] | IC50 [5, 12] | further results
CC[C@@]1(O)C(=O)OCc2c1cc1n(c2=O)Cc2c-1nc1cc(F)c(C)c(C#N)c1c2CN [Compound 16] | 5 nM | 6 nM | 1 nM | 3 nM | 38 nM | 8 nM | 30 nM | 7 nM | 1 nM |  |  |  |  |  |  |  |  |  |  | IC50 (melanoma cells (A2058)): 3 nM; IC50 [5]: 67 nM
CC[C@@]1(O)C(=O)OCc2c1cc1n(c2=O)Cc2c-1nc1cc(F)c(SC)cc1c2CN [Compound 2at] |  |  |  |  |  |  |  |  |  | 20 nM | 4 nM | 30 nM | 11 nM | 23 nM | 21 nM | 264 nM | 38 nM | 8 nM |  | IC50 [11, 12]: 84 nM; IC50 [7, 12]: 50 nM
CC[C@@]1(O)C(=O)OCc2c1cc1n(c2=O)Cc2c-1nc1cc(F)c(C)c(-c3ccc(CO)s3)c1c2CN [Compound 6e] |  |  |  |  |  |  |  |  |  |  |  |  |  |  |  |  |  |  |  | IC50 [5]: 155 nM
CC[C@@]1(O)C(=O)OCc2c1cc1n(c2=O)Cc2c-1nc1cc(F)c(C)c(-c3ccco3)c1c2CN [Compound 6o] |  |  |  |  |  |  |  |  |  | 4 nM | 5 nM | 9 nM | 2 nM | 4 nM | 35 nM | 14 nM | 8 nM | 3 nM | 26 nM | 
CC[C@@]1(O)C(=O)OCc2c1cc1n(c2=O)Cc2c-1nc1cc(F)c(C)c(-c3cccs3)c1c2CN [Compound 6n] |  |  |  |  |  |  |  |  |  | 16 nM | 17 nM | 47 nM | 6 nM | 13 nM | 70 nM | 30 nM | 24 nM | 7 nM | 56 nM | 
CC[C@@]1(O)C(=O)OCc2c1cc1n(c2=O)Cc2c-1nc1cc3c(cc1c2CNC1CCOC1)OCO3 (stereo partly drawn) [Compound 7ah] | 0.8 nM | 2 nM | 0.2 nM | 0.5 nM | 6 nM | 0.8 nM | 0.9 nM | 1 nM | 0.2 nM |  |  |  |  |  |  |  |  |  |  | IC50 (melanoma cells (A2058)): 0.5 nM; IC50 [5]: 10 nM
CC[C@@]1(O)C(=O)OCc2c1cc1n(c2=O)Cc2c-1nc1cc3c(cc1c2CNCCOC)OCO3 [Compound 7ag] | 0.9 nM | 3 nM | 0.3 nM | 0.8 nM | 9 nM | 0.9 nM | 2 nM | 1 nM | 0.3 nM |  |  |  |  |  |  |  |  |  |  | IC50 (melanoma cells (A2058)): 0.6 nM; IC50 [5]: 6 nM
CC[C@@]1(O)C(=O)OCc2c1cc1n(c2=O)Cc2c-1nc1cc(F)c(F)c(F)c1c2CN [Compound 2ap] |  |  |  |  |  |  |  |  |  |  | 2 nM | 4 nM | 1 nM | 2 nM | 13 nM | 5 nM | 5 nM | 1 nM |  | IC50 [11, 12]: 14 nM; IC50 [7, 12]: 8 nM
CC[C@@]1(O)C(=O)OCc2c1cc1n(c2=O)Cc2c-1nc1cc3c(cc1c2CN(C)CCCN)OCO3 [Compound 8, (5S)-14-[[3-aminopropyl(methyl)amino]methyl]-5-ethyl-5-hydroxy-7,18,20-trioxa-11,24-diazahexacyclo[11.11.0.02,11.04,9.015,23.017,21]tetracosa-1(13),2,4(9),14,16,21,23-heptaene-6,10-dione;2,2,2-trifluoroacetic acid] |  |  |  |  |  |  |  |  |  |  | 44 nM | 131 nM | 8 nM | 15 nM | 125 nM | 47 nM | 54 nM | 16 nM |  | IC50 [11, 12]: 52 nM; IC50 [7, 12]: 113 nM
CC[C@@]1(O)C(=O)OCc2c1cc1n(c2=O)Cc2c-1nc1cc(F)c(C)c(Cl)c1c2CNC(C)=O [Compound 12a] | 0.4 nM | 7 nM | 0.2 nM | 0.4 nM | 2 nM | 1 nM | 1 nM | 1 nM | 0.2 nM |  |  |  |  |  |  |  |  |  |  | IC50 [11]: 2 nM
CC[C@@]1(O)C(=O)OCc2c1cc1n(c2=O)Cc2c-1nc1cc(F)c(C)c(C3=CCSCC3)c1c2CN [Compound 6m] |  |  |  |  |  |  |  |  |  | 7 nM | 8 nM | 22 nM | 2 nM | 5 nM | 38 nM | 7 nM | 12 nM | 6 nM | 35 nM | 
CC[C@@]1(O)C(=O)OCc2c1cc1n(c2=O)Cc2c-1nc1cc(F)c(C)c(-c3ccoc3)c1c2CN [Compound 6p] |  |  |  |  |  |  |  |  |  | 2 nM | 2 nM | 5 nM | 0.9 nM | 1 nM | 10 nM | 3 nM | 3 nM | 2 nM | 8 nM | 
CC[C@@]1(O)C(=O)OCc2c1cc1n(c2=O)Cc2c-1nc1cc3c(cc1c2CNC1CCN(C)CC1)OCO3 [Compound 7w] | 6 nM | 16 nM | 2 nM | 6 nM | 26 nM | 15 nM | 26 nM | 8 nM | 2 nM |  |  |  |  |  |  |  |  |  |  | IC50 [11]: 13 nM
CC[C@@]1(O)C(=O)OCc2c1cc1n(c2=O)Cc2c-1nc1cc3c(cc1c2CNC(=O)CO)CCO3 [Compound 15c, (S)-N-((12-ethyl-12-hydroxy-8,11-dioxo-2,3,6,9,11,12-hexahydro-8H-furo [3,2 g]pyrano[3′,4′:6,7]indolizino[1,2-b]quinolin-5-yl)methyl)-2-hydroxyacetamide] |  |  |  |  |  |  |  |  |  | 6 nM | 10 nM | > 1000 nM | 1 nM | 3 nM | 69 nM | 18 nM | 22 nM | 3 nM | 184 nM | IC50 [7, 12]: 22 nM
CC[C@@]1(O)C(=O)OCc2c1cc1n(c2=O)Cc2c-1nc1cc3c(cc1c2CNC1CCNCC1)OCO3 [Compound 8e] | 36 nM | 109 nM | 7 nM | 25 nM | 102 nM | 104 nM | 89 nM | 72 nM | 10 nM |  |  |  |  |  |  |  |  |  |  | IC50 [11]: 62 nM
CC[C@@]1(O)C(=O)OCc2c1cc1n(c2=O)Cc2c-1nc1cc(F)c(C)c(Cl)c1c2CNC(=O)CN [Compound 13a] | 1 nM | 44 nM | 0.3 nM | 1 nM | 5 nM | 6 nM | 2 nM | 1 nM | 1 nM |  |  |  |  |  |  |  |  |  |  | IC50 [11]: 5 nM

Source: patent US20230381321A1, “CAMPTOTHECIN CONJUGATES” (priority 2022, published 2023)
